Measurements as given in patent US20240407364A1, “METHODS OF WEED CONTROL” (Weedout Ltd., priority 2021, published 2024).
Entries after “also recorded” stand apart in the source; their conditions may differ.

What was measured:
A. palmeri female plants [1] = test: Exp 289: seed set of female plants pollinated 1.5 hours to 10 days after Clethodim; format: in vivo, Amaranthus palmeri; details: Select Super 3.5 ml/l
Method: The goal of this experiment was to examine the effects of Clethodim (Select Super™) on seed set in A. palmeri female plants. The results of Example 1 provided an initial indication on a reduction in seed set one week after an application of Clethodim. The following experiment tested the effect of Clethodim on seed set when pollination occurs from 1.5 hours to 10 days after treatment with Clethodim.
The experiment was conducted during June-July 2021 at the tests farm of the Tests farm of the Faculty of Agriculture, Rehovot, Israel, Israel. A. palmeri plants were sown in germinating trays. Three weeks after the seedlings had emerged, they were transplanted to 4 L pots with a potting soil mixture. The female plants were separated from the male plants and were grown outside in a location isolated from air-borne pollen. Upon maturation, 6 female plants were selected and divided into 2 groups of 3 plants.
Spraying of the entire plants with either tap water or Select Super™ (3.5 ml/1) using a hand-held 1.5 L sprayer, with enough distance between the groups to prevent contamination.
To test the effect of Clethodim on seed set, the inflorescence of the plants were artificially pollinated. On each time interval, a paper tube with 10 mg of fresh non-irradiated pollen was carefully placed on an inflorescence, leaving it for 20 minutes before removing. […]

A. palmeri male plants [2] = test: Exp 254: pollen production of male plants after spraying male sterilant agents; format: in vivo, Amaranthus palmeri
Method: (§1) The experiment was conducted during April-May 2021 in a net house in Rehovot, Israel. A. palmeri plants were sown in germinating trays. Three weeks after the seedlings had emerged, the male plants were transplanted in the net house. A. palmeri plants were divided into 10 groups of 10 plants, 100 male plants in total. In addition, 30 females, 3 females per treatment, were transplanted in 4 L pots with a potting soil mixture and were grown in a different net house, isolated from male pollen.
Once the male plants had all started to flower, the pollen had been collected daily with a vacuum cleaner. The vacuum cleaner had been mounted with a replaceable filter located ahead of the dust container, thus catching the pollen before it enters the container and improving its collection. A new filter was used for each group, and the filters were kept in a 50 ml tube before the pollen was extracted and weighed in the lab.
(§2) The experiment tested 8 male sterilant agents (Table 2): (1) Triton X-100 (Adama), at label rate, ˜8 times the rate used in experiment I; (2) Tribenuron-Methyl (TBM) (Gadot), 1/100 the rate used in experiment I; (3) 10% Paraffin oil (Life—Superpharm) diluted in Silicon oil 2 cST; (4) E.O.S. (Adama), an insecticide with a physical mode of action, based on petroleum oil; (5) Maleic Hydrazide (Sigma), an Auxin (plant hormone) disruptor known to affect pollen production; (6) Pyrithiobac (IHARA chemical industry co. ltd), an herbicide of the AHAS inhibitors group, regularly used in cotton cultivation to control broadleaf weeds; (7) Diuron (Adama), a herbicide of the Photosystem II inhibitors, regularly used in cotton cultivation; (8) Clethodim (Select Super™ a selective herbicide used to control Gramineae. Another group of plants were treated with water only as control, and another was not treated at all (Blank).
(§3) The treatments were applied using a hand-held sprayer, the females were sprayed first and then the males. ˜650 ml solution was used per treatment for both males and females, except the Paraffin:Silicon oil treatment in which 500 ml was used. The solutions were sprayed on top of the plants except the Diuron that was sprayed directly to the soil and stem, except for one female that was sprayed on top. To activate the Diuron, each plant was watered with 1 L of water.

A. palmeri females [3] = test: Exp 254: seed set of females pollinated one week after treatment; format: in vivo, Amaranthus palmeri
Method: as §1, §3
The experiment aimed to test not just the male sterility properties of the agents but also to examine the effect on the seed set. To do so, one week after treatment, the main inflorescence of each female (except the blank) was pollinated with fresh pollen mixed with talc in 2:1 ratio using a puffer. 70 mg of pollen was applied on each female. Two weeks after pollination the inflorescences were harvested, dried, thrashed and the seeds were counted.

A. palmeri male plants [4] = test: Exp 275: pollen weight of male plants after male sterilant agents; format: in vivo, Amaranthus palmeri
Method: The experiment was conducted during May-June 2021 in a net house in Rehovot, Israel. A. palmeri plants were sown in the net house soil and were grown for over a month before the experiment started. A. palmeri plants were divided into 6 groups of 10 plants, 60 male plants in total.
The plants were mature and produced pollen when the experiment started. The pollen had been collected daily with a vacuum cleaner. The vacuum cleaner had been mounted with a replaceable filter located ahead of the dust container, thus catching the pollen before it enters the container and improving its collection. Pollen was collected for 5 days before the treatment and was continued for 2 weeks afterwards.
The experiment tested 5 male sterilant agents: (I) Silicon oil 2 cST; (II) 2% Paraffin oil (Life—Superpharm) in Silicon oil 2 c/st; (III) 10% Paraffin oil (Life—Superpharm) in Silicon oil 2 cST; (IV) Clethodim (Select Super™), same as in Example 1; (V) Pyrithiobac, at 1/10 the concentration used in experiment II. Another group of plants was not treated at all (Blank).
The treatments were applied using a hand-held sprayer. The solutions were sprayed on top of the plants.

A. palmeri female plants [5] = test: Exp 313: dose response of Clethodim (Select Super) on seed set; format: in vivo, Amaranthus palmeri; details: for reduction in number of seeds produced in comparison to the control, on average: all time points averaged
Method: The goal of this experiment was to examine dose response of Clethodim (Select Super™) treatment and validate the results of Example 3.
The experiment was conducted during September 2021 at the tests farm of the Faculty of Agriculture in Rehovot, Israel. A. palmeri plants were sown in germinating trays. 3 weeks after the seedlings had emerged, they were transplanted to 4 L pots with a potting soil mixture. The female plants were separated from the male plants and were grown outside in a location isolated from air-borne pollen. Upon maturation, 9 female plants were selected and divided into 3 groups of 3 plants.
The experiment tested 2 rates of Select Super™ (Clethodim 120 gr/L-Arysta): (I) Low rate (3.5 ml/1), (II) High rate (7 ml/1). Another group of plants was treated with tap water (Control), [3.5 ml/L treatment=0.42 gr/L in active ingredient, 7 ml/L treatment=0.84 gr/L].
Treatment procedure was conducted as follows: spraying of the entire plants with the different treatments using a hand-held 1.5 L sprayer, with enough distance between the groups to prevent contamination.
To test the effect of Clethodim on seed set, artificial pollinations were conducted in several time intervals following clethodim treatment. On each time interval, 2 inflorescences on each plant were artificially pollinated by placing a paper tube with 10 mg of fresh non-irradiated pollen on the inflorescence and leaving it for 20 minutes before removing. On each time interval a total of 6 inflorescences from 3 female plants were pollinated. The intervals were as follows: 1.5-hour, 1 day, 2 days, 4 days, 7 days, 10 days and 22 days after treatment.

A. palmeri male plants [6] = test: Exp 321: male sterility agents screening #2, pollen production; format: in vivo, Amaranthus palmeri; details: 7 ml/L (high rate); collection up to 12 DAA
Method: The goal of this experiments was to repeat results with Select Super™ (Arysta Lifescience) and test an additional formulation of clethodim to act as a sterilant on A. palmeri male plants.
The experiment was conducted during September-October 2022 in a net house in Rehovot, Israel. A. palmeri plants were sown in germinating trays, 3 weeks after the seedlings had emerged, the male plants were transplanted in the net house. A. palmeri plants were divided into 4 groups of 10 plants each, 40 male plants in total.
Once the male plants had all started to flower, the pollen had been collected daily with a vacuum cleaner in the same manner as described in Example 1. Pollen was collected in specific days following the applications up to 12 DAA.
The experiment tested 2 male sterilant agents: (1) Clethodim (Select Super™, Arysta Lifescience) low rate: 3.5 ml/L and high rate: 7 ml/L, (2) Clethodim (Arrow Super™, Adama) 7 ml/L. Another group of plants were not treated at all and served as a control.
Treatment procedure was conducted as follows: spraying of the entire plants using a hand-held 1.5 L sprayer for a full cover of all plant parts. Each group of plants was sprayed with the tested treatment while keeping enough distance between the groups to prevent contamination.

[7] = system: Amaranthus tuberculatus female plants; test: Exp 401: clethodim on broadleaf panel, Amaranthus tuberculatus seed set; format: in vivo; details: Select Super 7 ml/L
Method: (§4) The goal of this experiment was to examine if ACCase inhibitors can function as a sterilant on other broadleaf families.
(§5) The experiment was conducted during April-June 2022 at the test farm of the Faculty of Agriculture in Rehovot, Israel. The different broad leaf species (Table 5) were sown in germination trays. 3-4 weeks after the seedling had emerged, they were transplanted in 4 L pots with potting soil mixture. Amaranthus tuberculatus female plants were separated from male plants and grown outside in a location isolated from air borne pollen. Upon maturation, 10 plants from each species, except for A. tuberculatus females, were selected and divided into 2 groups (control and treatment). In A. tuberculatus, 8 female plants were used for the testing.
(§6) All the treated plants were sprayed with clethodim (Select Super™, Arysta Lifescience) in 7 ml/L rate while the control group was treated with tap water.
(§7) Treatment procedure was conducted as follows: spraying of the entire plants with the different treatments using electric back sprayer for a full cover, with enough distance between the groups to prevent contamination.
To test the effect of treatment on the seed set, artificial pollinations were conducted 7 days following the clethodim treatment. One spike from each plant was artificially pollinated by placing a paper tube with 10 mg of fresh non-irradiated pollen on the spike and leaving it for 20 minutes before removing. A total of 4 spikes from 4 female plants were pollinated.
(§8) Four, 7 14 and 21 days after treatment, the plants were visually examined carefully to identify possible sterilant effects such as reduction in pollen production, growth delay, damaged flowers, loss of flowers, loss of pods and phytotoxicity. These effects were measured or evaluated and recorded. The average values of each parameter were calculated both for the treated and for the control groups and a statistical analysis was conducted.

[8] = system: Amaranthus tuberculatus male plants; test: Exp 401: Amaranthus tuberculatus pollen production; format: in vivo; details: Select Super 7 ml/L
Method: as §4, §5
(§9) All the treated plants were sprayed with clethodim (Select Super™, Arysta Lifescience) in 7 ml/L rate while the control group was treated with tap water. […]
as §8

Abutilon theophrasti = test: Exp 401: clethodim on Abutilon theophrasti; format: in vivo; details: Select Super 7 ml/L
Method: as §4, §5, §6, §7, §8

Solanum nigrum = test: Exp 401: clethodim on Solanum nigrum; format: in vivo; details: Select Super 7 ml/L; 15 DAA; p-value 0.0048
Method: as §4, §5, §9, §8

A. palmeri females [9] = test: Exp 254: phytotoxicity of the agents on females; format: in vivo, Amaranthus palmeri; details: 3 females per treatment; concentrations of Table 2; Diuron 5 ml/L, Pyrithiobac 5.4 μL/L
Method: as §1
as §2, with “Another group of plants were treated with water only as control, and another was not treated at all (Blank).” left out

[10] = Clethodim 3.5 ml/L, 10% Paraffin in 2 cST
[11] = Clethodim treatment group, FIG. 2
[12] = average of 3 inflorescences, pollinated one week after treatment

CCSC(C)CC1CC(=O)C(/C(CC)=N/OC/C=C/Cl)=C(O)C1 (centres unmarked) [Clethodim (Select Super™]
abortion rate (aborted seeds/total seeds) (A. palmeri female plants [1]; vs tap water): significantly higher compared to the water control

CCSC(C)CC1CC(=O)C(/C(CC)=N/OC/C=C/Cl)=C(O)C1 (centres unmarked) [Clethodim]
pollen weight after treatment relative to the lowest amount collected before treatment (A. palmeri male plants [2]; Clethodim 3.5 ml/L): 1/10 | duration of the pollen weight reduction / time to get back to pre-treatment weight (A. palmeri male plants [2]; [10]): 14 days | onset of the reduction in pollen weight (A. palmeri male plants [2]; [10]): 5 days after treatment | onset of pollen production (recovery) (A. palmeri male plants [2]; [11]): 13 DAT | period of major reduction in pollen weight (A. palmeri male plants [2]; [11]): 5-8 DAT | visible effect / injury to the treated plants (A. palmeri male plants [2]; male plants after spraying): no apparent injury to the plants; also recorded: no visible effect on the plants | Average Aborted Seeds (A. palmeri females [3]; [12]): 80.7 number of seeds | Average Abortion Rate (fraction of aborted seeds from the total seed number) (A. palmeri females [3]; [12]): 0.17 | Average Normal Seeds (A. palmeri females [3]; [12]): 349 number of seeds | Average Seeds/ mg inflo. (total seed number divided by inflorescence weight) (A. palmeri females [3]; [12]): 0.78 | Average Total Seeds (A. palmeri females [3]; [12]): 429.7 number of seeds | Average Inflo. Weight (A. palmeri females [3]; average of 3 inflorescences, pollinated one week after treatment, harvested two weeks later): 667.3 mg | effect on abortion rate compared to the water (A. palmeri females [3]; compared to H2O treatment): no effect | number of seeds per inflorescence mg as % of the water treatment value (A. palmeri females [3]; compared to H2O treatment): ~70% | duration of the reduction in pollen weight (A. palmeri male plants [4]; 10% Paraffin oil in Silicon oil 2 cST, Clethodim (Select Super) as in Example 1): 8 days | apparent damage to the plants (A. palmeri male plants [4]; in vivo): did not cause any apparent damage to the plants | onset of the reduction in pollen weight after application (A. palmeri male plants [4]; in vivo): 5 days | reduction in pollen weight compared to the blank (A. palmeri male plants [4]; maximum reduction, FIG. 4): up to 80% | duration of decreased total seed number after application (A. palmeri female plants [1]): at least 10 days | visible effect on the plants (A. palmeri female plants [5]; both rates): no visible effect on the plants | reduction in number of seeds produced in comparison to the control, on average (A. palmeri female plants [5]; high rate 7 ml/l (0.84 gr/L active ingredient)): 92% | reduction in number of seeds produced in comparison to the control, on average (A. palmeri female plants [5]; low rate 3.5 ml/l (0.42 gr/L active ingredient)): 67% | reduction in pollen production between day 4 and the end of the experiment (A. palmeri male plants [6]): 78% | visible effect on the plants [7]: no visible effect on the plants other than on the flowering organs | reduction of average seed weight per spike in comparison to the control spikes ([7]; pollination 7 days after treatment): 93% | Average total seed weight per spike ([7]; pollination 7 days after treatment, 4 spikes from 4 plants): 13.25 mg | duration of the effect on pollen [8]: at least 21 days | onset of the effect on pollen [8]: 4 days after treatment | time from application to start of Blossom-Drop (Abutilon theophrasti): 7 days | reduction in average stem length (main stem) (Abutilon theophrasti; 15 DAA, p-value *0.0058): 19% | reduction in average pods number in comparison to the control (Abutilon theophrasti; 15 days after application, p-value *0.0001): 75% | reduction in average total fruit number (Solanum nigrum): 35%

CN(C)C(=O)Nc1ccc(Cl)c(Cl)c1 [Diuron]
phytotoxicity on females (A. palmeri females [9]): killed all three females

COc1cc(OC)nc(Sc2cccc(Cl)c2C(=O)O)n1 [Pyrithiobac]
phytotoxicity on females (A. palmeri females [9]): chlorosis and growth stunt
